The supplement of paper PMC10307832

Columns and labels:
Assay in all cases: relative viability (nuclei count vs DMSO), 5 days (fraction); higher = more cells survive
Seliciclib + Lapatinib = compound: CC[C@H](CO)Nc1nc(NCc2ccccc2)c2ncn(C(C)C)c2n1 [Seliciclib] + CS(=O)(=O)CCNCc1ccc(-c2ccc3ncnc(Nc4ccc(OCc5cccc(F)c5)c(Cl)c4)c3c2)o1 [Lapatinib] (partner 2 µM)
In short: (§1)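 Relative viability equals treated-well nuclei counts divided by vehicle-well nuclei counts. Counts came from 4× images of lung cancer cell lines grown in 1536-well plates for 5 days after pin-tool dosing on the day after seeding. Dosing used one drug alone or a fixed anchor-drug dose plus five library-drug doses (not always all listed) in √10 steps, and values are medians of duplicate plates.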

Seliciclib + Crizotinib = compound: CC[C@H](CO)Nc1nc(NCc2ccccc2)c2ncn(C(C)C)c2n1 [Seliciclib] + C[C@@H](Oc1cc(-c2cnn(C3CCNCC3)c2)cnc1N)c1c(Cl)ccc(F)c1Cl [Crizotinib] (partner 1 µM)
In short: as §1

Seliciclib + Dasatinib = compound: CC[C@H](CO)Nc1nc(NCc2ccccc2)c2ncn(C(C)C)c2n1 [Seliciclib] + Cc1nc(Nc2ncc(C(=O)Nc3c(C)cccc3Cl)s2)cc(N2CCN(CCO)CC2)n1 [Dasatinib] (partner 0.075 µM)
In short: as §1

Seliciclib + Pemetrexed = compound: CC[C@H](CO)Nc1nc(NCc2ccccc2)c2ncn(C(C)C)c2n1 [Seliciclib] + Nc1nc2[nH]cc(CCc3ccc(C(=O)N[C@@H](CCC(=O)O)C(=O)O)cc3)c2c(=O)[nH]1 [Pemetrexed] (partner 0.2 µM)
In short: as §1

Row | Cell Line | relative viability (Seliciclib + Lapatinib; first compound 0.08 µM) | relative viability (Seliciclib + Lapatinib; first compound 0.253 µM) | relative viability (Seliciclib + Lapatinib; first compound 0.8 µM) | relative viability (Seliciclib + Lapatinib; first compound 2.53 µM) | relative viability (Seliciclib + Lapatinib; first compound 8 µM) | relative viability (Seliciclib + Crizotinib; first compound 0.08 µM) | relative viability (Seliciclib + Crizotinib; first compound 0.253 µM) | relative viability (Seliciclib + Crizotinib; first compound 0.8 µM) | relative viability (Seliciclib + Crizotinib; first compound 2.53 µM) | relative viability (Seliciclib + Crizotinib; first compound 8 µM) | relative viability (Seliciclib + Dasatinib; first compound 0.08 µM) | relative viability (Seliciclib + Dasatinib; first compound 0.253 µM) | relative viability (Seliciclib + Dasatinib; first compound 0.8 µM) | relative viability (Seliciclib + Dasatinib; first compound 2.53 µM) | relative viability (Seliciclib + Dasatinib; first compound 8 µM) | relative viability (Seliciclib + Pemetrexed; first compound 0.08 µM) | relative viability (Seliciclib + Pemetrexed; first compound 0.253 µM) | relative viability (Seliciclib + Pemetrexed; first compound 0.8 µM) | relative viability (Seliciclib + Pemetrexed; first compound 2.53 µM) | relative viability (Seliciclib + Pemetrexed; first compound 8 µM)
1 | NCI-H1915 | 0.951 | 1.13 | 1.02 | 0.936 | 0.853 | 0.922 | 0.964 | 0.88 | 0.816 | 0.757 | 0.354 | 0.303 | 0.277 | 0.288 | 0.283 | 0.483 | 0.483 | 0.492 | 0.604 | 0.514
2 | NCI-H2009 | 0.944 | 1.04 | 0.889 | 0.772 | 0.721 | 1.04 | 0.963 | 1.06 | 0.987 | 0.989 | 0.322 | 0.376 | 0.307 | 0.233 | 0.288 | 1.08 | 1.17 | 1.03 | 0.981 | 1.02
3 | BEN | 0.826 | 0.525 | 0.772 | 0.677 | 0.629 | 0.753 | – | 0.822 | 0.929 | 0.832 | 0.311 | 0.313 | 0.375 | 0.271 | 0.322 | 0.805 | 0.676 | 0.67 | 0.611 | 0.63
4 | PC-14 | 0.306 | 0.262 | 0.315 | 0.309 | 0.263 | 0.865 | 0.846 | 0.78 | 0.991 | 0.759 | 0.288 | 0.396 | 0.269 | 0.215 | 0.23 | 0.125 | 0.147 | 0.166 | 0.143 | 0.122
5 | NCI-H2170 | 0.272 | 0.274 | 0.269 | 0.259 | 0.268 | 1.1 | 0.873 | 1.18 | 1.4 | 1.11 | 0.547 | 0.464 | 0.472 | 0.636 | 0.52 | 0.269 | – | 0.262 | 0.268 | 0.26
6 | NCI-H727 | 0.936 | 0.75 | 0.556 | 0.518 | 0.634 | 0.813 | 0.882 | 0.777 | 0.829 | 0.823 | 0.481 | 0.504 | 0.342 | 0.307 | 0.336 | – | – | – | – | –
7 | NCI-H1355 | 0.961 | 0.834 | 0.94 | 0.927 | 0.929 | 1.01 | 1.05 | 1.13 | 1.16 | 0.998 | 0.755 | 0.585 | 0.683 | 0.544 | 0.686 | 0.945 | 0.922 | 1.02 | 1.02 | 0.962
8 | NCI-H1975 | 0.867 | 0.834 | 0.868 | 0.759 | 0.716 | 0.966 | 0.984 | 0.917 | 0.924 | 0.662 | 0.409 | 0.374 | 0.424 | 0.326 | 0.314 | 0.274 | 0.328 | 0.281 | 0.331 | 0.267
